Like-named read-outs stand apart in the source and are kept apart here.
Key:
[1] = Solubility determination of salt forms of the compounds (10 mg, ultrapure water added incrementally); assay type: physicochemical; conditions: 10 mg of the salt form, 25° C.±2° C., class = water volume used
Method: A weighed amount of 10 mg of the compound's salt form was placed in a vessel at 25° C.±2° C. Ultrapure water was added incrementally. The mixture was vigorously shaken for 30 seconds every 5 minutes and observed for 30 minutes. When no undissolved particles or droplets remained in the test system, the water solubility of the salt form was recorded according to the following criteria: • A: Water volume used is less than 0.1 mL; • B: Water volume used is greater than or equal to 0.1 mL and less than 1.0 mL; • C: Water volume used is greater than or equal to 1.0 mL and less than 5.0 mL.

SD rats [2] = assay: Anesthetic effect (minimum effective anesthetic dose, LORR) after single tail vein injection in rats; assay type: in vivo
Method: The dose at which the LORR first occur was determined as the minimum effective anesthetic dose. The minimum effective anesthetic dose is further classified as: A≤5 mg/kg; 5 mg/kg<B≤10 mg/kg; 10 mg/kg<C≤20 mg/kg; D>20 mg/kg in this invention.
The Up and down method was used to determine the ED50 of the compound causing the LORR. […] After observing five consecutive consistent directional changes in LORR occurrence and recovery, the ED50 was calculated using the Dixon-Mood formula. After determining the ED50, the onset time, duration of anesthesia, and emergence time of anesthesia were determined at an injection dose of 2ED50.
In the above experiments, in addition to recording the dose at which the LORR occurred, the onset time and emergence time of anesthesia, the duration of the LORR, and the duration of sedative effects could also be recorded. Meanwhile, circulatory effects experiments can be added to observe the effects of the compound on circulation and respiration in rats.

SD rats [3] = conditions: tail vein, ratio of minimum lethal dose to minimum effective anesthetic dose
Method: SD rats were used, with a single intravenous injection via the tail vein (administration rate of 0.02 ml/s and administration volume of 0.5-1.0 ml per 100 g body weight) in the experiment. The initial dose of the test compound started at 4ED50, and the actual administration dose was calculated based on the body weight measured before the test for each animal. The increase or decrease in subsequent doses was determined based on the results of the experimental animals (whether death occurred). The dose at which death first occurred was determined as the minimum lethal dose. […] The approximate therapeutic index is further classified as: A when the index is ≥5; B when the index is <5 but ≥3; and C when the index is <3.

[4] = assay type: physicochemical
Method: Compound A6S (1 eq) was dissolved in Et2O (2 mL) at room temperature, and the corresponding acid (2 eq) was dissolved in Et2O (NO.1-NO.4) or MeOH (NO.5-NO.10). The above acid solution was slowly added to the reaction system containing Compound A6S using a syringe. NO.1-NO.3 was mixed and stirred at room temperature for 1 hour, and NO.5-NO.10 was mixed and stirred at room temperature for 16 hours. The mixture was filtered under suction to get the solid, then the solid was washed with Et2O, and dried to obtain the corresponding salt form of Compound A6S. Then, the solubility of each salt form was tested in ultrapure water.

[5] = well-known to those skilled in the art; cited from earlier work
[6] = intravenous injection; compared to propofol; cited from earlier work
[7] = vehicle DMSO: A3 31.8%, A14 66.7%, A17 79.2%, A21S 66.7%, A23 60%, A24 82.8%
[8] = vehicle DMSO: A3 31.8%, A14 66.7%, A17 79.2%, A21S 66.7%, A23 60%, A24 82.8%, A25S 70%
[9] = vehicle Pure water, sulfate salts

Row | Compound | Solubility [1] | Minimal effective anesthetic dose (SD rats [2]; [8]) | Minimal effective anesthetic dose (SD rats [2]; [9]) | Onset time (SD rats [2]; [9]) [min] | Righting Reflex Duration (SD rats [2]; [9]) [min] | Sedation Duration (SD rats [2]; [9]) [min] | other results
1 | COC(=O)CC(=O)N1CCN(c2cc(C(C)C)c(O)c([C@H](C)C3CC3)c2)CC1 [Compound A3] | C (C: Water volume used is greater than or equal to 1.0 mL and less than 5.0 mL) | C (10 mg/kg<C≤20 mg/kg) |  |  |  |  | Onset time (SD rats [2]; [7]): 0.37 to 0.52 min; Righting Reflex Duration (SD rats [2]; [7]): 1.02 to 2.08 min; Sedation Duration (SD rats [2]; [7]): 6.65 to 8.50 min; Approximate therapeutic index (SD rats [3]; vehicle DMSO: A3 31.8%, A17 79.2%): B (B when the index is <5 but ≥3)
2 | COC(=O)[C@@H](C)N1CCN(c2cc(C(C)C)c(O)c([C@H](C)C3CC3)c2)CC1 [Compound A6R] |  |  | A (A≤5 mg/kg) | 0.15 to 0.70 | 1.72 to 3.82 | 7.02 to 14.77 | 
3 | COC(=O)[C@H](C)N1CCN(c2cc(C(C)C)c(O)c([C@H](C)C3CC3)c2)CC1 [Compound A6S] |  |  | B (5 mg/kg<B≤10 mg/kg) | 0.47 to 0.73 | 1.08 to 5.67 | 7.93 to 15.12 | Salt formation (Yes/No) ([4]; A6S with Benzenesulfonic acid (NO.6)): Yes; Salt formation (Yes/No) ([4]; A6S with Hydrochloric acid (NO.1)): Yes; Salt formation (Yes/No) ([4]; A6S with Maleic acid (NO.8)): Yes; Salt formation (Yes/No) ([4]; A6S with Methanesulfonic acid (NO.3)): Yes; Salt formation (Yes/No) ([4]; A6S with Oxalic acid dihydrate (NO.7)): Yes; Salt formation (Yes/No) ([4]; A6S with Phosphoric acid (NO.4)): Yes; Salt formation (Yes/No) ([4]; A6S with Sulfuric acid (NO.2)): Yes; Salt formation (Yes/No) ([4]; A6S with p-Toluenesulfonic acid hydrate (NO.5)): Yes
4 | CC(C)c1cc(N2CCN(CCO)CC2)cc([C@H](C)C2CC2)c1O [Compound A7] | B (B: Water volume used is greater than or equal to 0.1 mL and less than 1.0 mL) |  |  |  |  |  | 
5 | CC(C)c1cc(N2CCN(CC(=O)OC3COC3)CC2)cc([C@H](C)C2CC2)c1O [Compound A8] | B (B: Water volume used is greater than or equal to 0.1 mL and less than 1.0 mL) |  |  |  |  |  | 
6 | COC(=O)CN1CCN(c2cc(C(C)C)c(O)c([C@H](C)C3CC3)c2)CC12CC2 [Compound A11] |  |  | C (10 mg/kg<C≤20 mg/kg) | 0.12 to 0.27 | 0.68 to 3.12 | 12.05 to 14.53 | 
7 | COC(=O)CN1CC2CCC(C1)N2c1cc(C(C)C)c(O)c([C@H](C)C2CC2)c1 [Compound A12] | A (A: Water volume used is less than 0.1 mL) |  | C (10 mg/kg<C≤20 mg/kg) | 0.50 to 0.77 | 1.22 to 7.40 | 9.90 to 34.25 | Approximate therapeutic index (SD rats [3]; vehicle Pure water): A (A when the index is ≥5)
8 | CC(C)c1cc(N2CCN(CC(=O)OC(C)(C)C)CC2)cc([C@H](C)C2CC2)c1O [Compound A13] | A (A: Water volume used is less than 0.1 mL) |  |  |  |  |  | 
9 | CC(C)c1cc(N2CCN(CC(=O)OC(C)(C)C)CC2)cc([C@H](C)C2CC2)c1OCC(=O)OC(C)(C)C [Compound A14] |  | C (10 mg/kg<C≤20 mg/kg) |  |  |  |  | Onset time (SD rats [2]; [7]): 0.18 to 1.63 min; Righting Reflex Duration (SD rats [2]; [7]): 1.95 to 11.67 min; Sedation Duration (SD rats [2]; [7]): 19.40-28.45- min
10 | CC(C)c1cc(N2CCN(CC(=O)O)CC2)cc([C@H](C)C2CC2)c1O [Compound A15] | A (A: Water volume used is less than 0.1 mL) |  | D (D>20 mg/kg) |  |  |  | 
11 | CC(C)c1cc(N2CCN(CC(=O)OC(C)(C)C)CC2)cc(C(C)C)c1O [Compound A17] |  | A (A≤5 mg/kg) |  |  |  |  | Onset time (SD rats [2]; [7]): 0.15 to 0.63 min; Righting Reflex Duration (SD rats [2]; [7]): 3.67 to 9.38 min; Sedation Duration (SD rats [2]; [7]): 24.42 to 35.32 min
12 | CC(C)c1cc(N2CCN(CC(=O)OC(C)(C)C)C3(CC3)C2)cc([C@H](C)C2CC2)c1O [Compound A18] |  |  | B (5 mg/kg<B≤10 mg/kg) | 0.23 to 0.98 | 3.02 to 19.25 | 16.47 to 35.57 | 
13 | CC(C)c1cc(N2CCN([C@@H](C)C(=O)OC(C)(C)C)CC2)cc([C@H](C)C2CC2)c1O [Compound A19S] |  |  | B (5 mg/kg<B≤10 mg/kg) | 0.70 to 0.98 | 2.21 to 5.57 | 14.55 to 21.30 | 
14 | COC(=O)[C@H](C)N1CCN(c2cc(C(C)C)c(O)c(C(C)C)c2)CC1 [Compound A20S] |  |  | B (5 mg/kg<B≤10 mg/kg) | 0.18 to 0.43 | 2.18 to 7.48 | 15.75 to 23.72 | 
15 | CC(C)c1cc(N2CCN([C@@H](C)C(=O)OC(C)(C)C)CC2)cc(C(C)C)c1O [Compound A21S] |  | B (5 mg/kg<B≤10 mg/kg) |  |  |  |  | Onset time (SD rats [2]; [7]): 0.25 to 0.42 min; Righting Reflex Duration (SD rats [2]; [7]): 12.02 to 22.80 min; Sedation Duration (SD rats [2]; [7]): 28.72 to 56.33 min
16 | CC[C@@H](C(=O)OC)N1CCN(c2cc(C(C)C)c(O)c([C@H](C)C3CC3)c2)CC1 [Compound A22S] | A (A: Water volume used is less than 0.1 mL) |  |  |  |  |  | 
17 | COC(=O)C(C(C)C)N1CCN(c2cc(C(C)C)c(O)c([C@H](C)C3CC3)c2)CC1 (stereo partly shown) [Compound A23] | C (C: Water volume used is greater than or equal to 1.0 mL and less than 5.0 mL) | B (5 mg/kg<B≤10 mg/kg) |  |  |  |  | Onset time (SD rats [2]; [7]): 0.20 to 0.22 min; Righting Reflex Duration (SD rats [2]; [7]): 4.93 to 15.08 min; Sedation Duration (SD rats [2]; [7]): 30.48 to 39.13 min
18 | COC(=O)C(C1CC1)N1CCN(c2cc(C(C)C)c(O)c([C@H](C)C3CC3)c2)CC1 (stereo partly shown) [Compound A24] | C (C: Water volume used is greater than or equal to 1.0 mL and less than 5.0 mL) | B (5 mg/kg<B≤10 mg/kg) |  |  |  |  | Onset time (SD rats [2]; [7]): 0.17 to 0.18 min; Righting Reflex Duration (SD rats [2]; [7]): 5.53 to 9.67 min; Sedation Duration (SD rats [2]; [7]): 19.33 to 38.80 min
19 | COC(=O)[C@H](C)[N+]1(C)CCN(c2cc(C(C)C)c(O)c([C@H](C)C3CC3)c2)CC1 [Compound A25S] |  | D (D>20 mg/kg) |  |  |  |  | 
20 | CCOC(=O)C(C1CC1)N1CCN(c2cc(C(C)C)c(O)c([C@H](C)C3CC3)c2)CC1 (stereo partly shown) [Compound A26] | A (A: Water volume used is less than 0.1 mL) |  | A (A≤5 mg/kg) | 0.42 to 0.43 | 7.03 to 10.48 | 14.75 to 21.28 | 
21 | CC(C)c1cccc(C(C)C)c1O [Propofol, reference compound] |  |  |  |  |  |  | Approximate therapeutic index (SD rats [3]; vehicle Lipid emulsion): B (B when the index is <5 but ≥3); water solubility [5]: insoluble in water
22 | CC(C)c1cccc([C@H](C)C2CC2)c1O [ciprofol] |  |  |  |  |  |  | water solubility [5]: insoluble in water
23 | CC(C)c1cccc(C(C)C)c1OCOP(=O)(O)O [fospropofol disodium, Fospropofol disodium] |  |  |  |  |  |  | Onset time [6]: up to 2.9 minutes

Source: patent US20260137676A1 (priority 2022, published 2026)
